Here are results for 8 molecules from patent US6924100B2, “Gene alteration in the gene for the Gβ3-subunit of the human G protein” (priority 1998, dated 2005).

One assay relates to coronary vessels. The assay is described as follows: Coronary blood flow change after intracoronary BHT 933. It counts as in vivo, human. Conditions: carriers of the GNB3-825T allele, with or without CHD, FIG. 8. The source says:
An alpha2 adrenergic agonist (BHT 933) was applied intracoronary in the probands; it leads to contraction of coronary vessels. This effect was quantified via the flow change through these sections of the vessels. […] This means that in carriers of the GNB3-825T allele the intensification of the action of these pharmaceuticals can be predicted.

The target in assay [1] is T1, m2-muscarinergic receptor (Homo sapiens, UniProt P08172).
T1 sequence (P08172 1-466): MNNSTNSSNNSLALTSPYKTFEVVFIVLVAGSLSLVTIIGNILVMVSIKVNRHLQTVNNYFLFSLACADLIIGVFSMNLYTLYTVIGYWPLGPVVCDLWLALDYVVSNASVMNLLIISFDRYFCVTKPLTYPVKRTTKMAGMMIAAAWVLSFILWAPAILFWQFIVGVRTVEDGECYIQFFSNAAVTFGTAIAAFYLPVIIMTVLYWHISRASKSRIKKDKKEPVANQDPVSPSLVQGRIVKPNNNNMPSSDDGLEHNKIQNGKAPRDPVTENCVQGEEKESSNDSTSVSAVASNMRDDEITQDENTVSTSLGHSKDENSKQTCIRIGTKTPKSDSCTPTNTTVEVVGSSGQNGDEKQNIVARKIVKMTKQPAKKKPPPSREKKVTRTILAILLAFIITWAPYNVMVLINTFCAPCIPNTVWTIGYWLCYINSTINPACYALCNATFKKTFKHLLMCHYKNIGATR
Kind of assay: G protein stimulation by carbachol in Sf9 cells expressing m2-muscarinergic receptor, Galphai3, Ggamma5 and Gβ3 or Gβ3s. The format is cell-based. The settings on record: in the presence of Gβ3 (so in the source), FIG. 2. An excerpt: Here the m2-muscarinergic receptor is expressed together with the G protein subunits Galphai3 and Ggamma5 and either Gβ3 or Gbeta3-s in the Sf9 system.

Assay [2] concerns beta-adrenergic receptors. The assay is described as follows: Cardiac output after intravenous beta-adrenoceptor blocker. The format is in vivo, human. Conditions: average.
Assay [3] deals with males with penile dysfunction. The assay is described as follows: Erection score and arterial blood flow after prostaglandin E1 injection into the corpus cavernosum. It counts as in vivo, human. Conditions: for males with insufficient or absent erection / males with sufficient erection (scores 4 and 5): 10 micrograms, of 87 males. How it is done: When erectile dysfunction is present, prostaglandin E1 is injected into the corpus cavemosum for diagnostic clarification, but also possibly to begin long-term therapy. Prostaglandin E1 activates adenylcyclase, and the subsequent formation of cAMP relaxes smooth vascular muscle cells and thus induces an increased arterial blood flow and thus erection of the penis. The degree of the erection which occurs can be quantified via a point system (score 0-5). Here the scores 4 and 5 correspond to an erection which is sufficient for penetration, while scores<4 can be considered as insufficient.
In 87 males with penile dysfunction, 10 micrograms of prostaglandin E1 were administered with quantification of the erection score. Here the genotype distribution was as follows: Sufficient erection (scores 4 and 5): TT=3; TC=15; CC=16; (frequency of GNB3 825T allele: 30.9%). Insufficient or absent erection: TT=3; TC=16; CC=34; (frequency of the GNB3 825T allele: 20.8%).

For assay [4], the system named is neutrophilic granulocytes. The assay is described as follows: fMLP-stimulated chemotaxis of neutrophilic granulocytes. Conditions: granulocytes of carriers of the GNB3-825T allele, FIG. 5. The format is cell-based, human. An excerpt: It is therefore used as a test system for measurement of chemotactic reactions of cells which is well known to one skilled in the art. The fMLP receptor, as is known, activates the pertussis toxin-sensitive G proteins. The statement that granulocytes of carriers of the GNB3-825T allele show intensified fMLP-stimulated chemotaxis is in agreement with the fact that chemotaxis of betagamma subunits is mediated.

Assay [5] deals with phospholipase Cβ3 (PLCbeta3). Kind of assay: Inositol phosphate formation in COS-7 cells transfected with PLCβ3, Ggamma12 and Gβ subunits. The format is cell-based. The settings on record: betagamma dimers with Ggamma12, FIG. 16. The source says: It is generally known that betagamma subunits of heterotrimeric G proteins can stimulate different isoforms of the phospholipase Cbeta. This enzyme splits phospholipids, for example phosphatdylinositol-4,5-bisphosphate into the “second messenger” molecules inositol-1,4,5 triphosphate (IP3) and 1,2-diacylglycerol (DAG), IP3 causes release of calcium ions from intracellular reservoirs, while DAG activates different isoforms of the protein kinase C. Activation of phospholipase C is thus an important step in cell activation. It was examined whether betagamma subunits which contain Gβ3s-2 can activate the phospholipase Cβ3 (PLCbeta3). To do this the COS-7 cell system was used which is often used in the generally accessible literature for transient transfection of proteins. These cells were transfected with the PLCβ3, Ggamma12 and different Gβ subunits. The cells were pretreated with radioactively tagged [3H] inositol. The formation of inositol phosphates (IP) was quantified using standard methods, the amount of the 1P formed constituting a measure of the activation of the PLC. As is shown in FIG. 16, betagamma dimers which contain Gβ3, Gβ3s, or Gβ3s-2 can activate PLCβ33. Likewise, activation of PLCβ3 after transfection of Gβ1 is shown for comparison.

Another assay relates to G protein alpha subunits. Kind of assay: 35S-GTPgammaS binding to permeabilized Sf9 cells (Galphai2, Ggamma12, m2 receptor) after carbachol. The format is cell-based, human. Conditions: carbachol 100 microM, versus no beta subunit, FIG. 15. The source says:
First of all, it was studied whether G protein heterotrimers which contain Gβ3s-2 are functionally active. As described earlier, the Sf9 insect cell system was used for this purpose (Siffert, W., Rosskopf, D., Siffert, G., Busch, S., Moritz, A., Erbel, R., Sharma, A. M., Ritz, E.; Wichmann, H. E., Jakobs, K. H., and Horsthemke, B. Association of a human G protein β3 subunit variant with hypertension. Nat. Genet. 18(1): 45-48, 1998). The cells were transfected with Galphai2, Ggamma12 and the m2-muscarinergic acetylcholine receptor. The bonding of 35S-GTPgammaS to permeabilized cells was quantified after stimulation with carbachol (100 microM). Here the specific incorporation of 35S-GTPgammaS is a measure of the activation of G protein alpha subunits. […] Thus it is shown at the same time that Gβ3s-2 in spite of the deletion of one propeller blade is functionally active and even leads to intensified activation of G proteins. […] Galphai2, Galphai3, G-1, and G-2 are not mutated. Circ. Res. 79:974-983, 1996. Siffert, W., Rosskopf, D., Moritz, A., Wieland, T., Kaldenberg-Stasch, S., Kettler, N., Hartung, K., Bechmann, S., and Jakobs, K. H. Enhanced G protein activation in immortalized lymphoblasts from patients with essential hypertension. J. Clin. Invest. 96:759-766, 1995. Wirchow, S., Ansorge, N., Ruebben, H., Wiffert, G., and Siffert, W. Enhanced fMLP-stimulated chemotaxis in human neutrophils from individuals carrying out the G protein beta3 subunit 825T-allele. FEBS Lett. 436(2): 155-158, 1998).

Another assay relates to G protein alpha-subunits. The assay is described as follows: [35S]GTPgammaS incorporation after Mas-7 stimulation, COS-7 transfection system. It counts as cell-based, human. The settings on record: COS-7 cells, FIG. 1. An excerpt:
The subject matter of this invention is based on the finding that the Gβ3s subunit leads to increased activation capacity of G proteins. The increased activation capacity of G proteins was detected via transfection of the corresponding cDNAs and the expression of Gβ3 and Gβ3s in the COS-7 transfection system which is well known to one skilled in the art. […] To quantify the activation capacity of G proteins, here the incorporation of radioactively tagged [35S]GTPgammaS into G protein alpha-subunits after stimulation with the peptide mastoparan-7 (Mas-7) was measured.

Consider `CCN1CCc2nc(N)oc2CC1` [BHT 933], for which the “reduction of coronary blood flow” value in the assay on coronary vessels is “intensified reduction of coronary blood flow”.

For `C[N+](C)(C)CCOC(N)=O` [carbachol], the “potency and efficiency of the agonist for stimulation of G proteins” value in assay [1] is “increased potency and increased efficiency”.

With `CC(C)NCC(O)COc1cccc2ccccc12` (stereo not shown) [propanolol], the “decrease of cardiac output” value in assay [2] (homozygotic C825 carriers) stood at 3 mL; in assay [2] (homozygotic and heterozygotic 828T (so in the source) allele carriers), 12 mL.

For `CCCCC[C@H](O)/C=C/[C@H]1[C@H](O)CC(=O)[C@@H]1CCCCCCC(=O)O` [prostaglandin E1], the entries for the “males with insufficient or absent erection” value in assay [3] (genotype CC), in assay [3] (genotype TC) and in assay [3] (genotype TT) were 34, 16 and 3, respectively. The entries for the “males with sufficient erection (scores 4 and 5)” value in assay [3] (genotype CC), in assay [3] (genotype TC) and in assay [3] (genotype TT) were 16, 15 and 3, respectively. Also, the “increase of the arterial blood flow (doppler sonography)” value in assay [3] (after injection, homozygotic C825 allele carriers) is recorded as “reduced increase of the arterial blood flow”.

For the molecule fMLP, the chemotaxis result in assay [4] was “increased chemotaxis”.

B1: Gβ3: Gβ3-subunit of the human G protein (protein, UniProt P16520 1-340, looked up)
Guanine nucleotide-binding …: MGEMEQLRQEAEQLKKQIADARKACADVTLAELVSGLEVVGRVQMRTRRTLRGHLAKIYAMHWATDSKLLVSASQDGKLIVWDSYTTNKVHAIPLRSSWVMTCAYAPSGNFVACGGLDNMCSIYNLKSREGNVKVSRELSAHTGYLSCCRFLDDNNIVTSSGDTTCALWDIETGQQKTVFVGHTGDCMSLAVSPDFNLFISGACDASAKLWDVREGTCRQTFTGHESDINAICFFPNGEAICTGSDDASCRLFDLRADQELICFSHESIICGITSVAFSLSGRLLFAGYDDFNCNVWDSMKSERVGILSGHDNRVSCLGVTADGMAVATGSWDSFLKIWN
Consider B1, for which, in assay [5], the “activation of PLCβ3 (inositol phosphate formation)” value (“activation of PLCβ3” for short) is listed as “can activate”. The “G protein activation (specific 35S-GTPgammaS incorporation)” value (from here on “G protein activation”) in the assay on G protein alpha subunits was “clearly intensified”.

B2: Gβ3s: alternative splice product of human GNB3 with loss of 41 amino acids (protein, listed as Homo sapiens)
chain: MGEMEQLRQEAEQLKKQIADARKACADVTLAELVSGLEVVGRVQMRTRRTLRGHLAKIYAMHWATDSKLLVSASQDGKLIVWDSYTTNKVHAIPLRSSWVMTCAYAPSGNFVACGGLDNMCSIYNLKSREGNVKVSRELSAHTGYLSCCRFLDDNNIVTSSGDTTCALWDIETGQQKTVFVGHTGDCMSLAVSPDFNLFISGACDASAKLWDVREGTCRQTFTGQESDINAICFFSLSGRLLFAGYDDFNCNVWDSMKSERVGILSGHDNRVSCLGVTADGMAVATGSWDSFLKIWN
As for B2, the “activation capacity of G proteins ([35S]GTPgammaS incorporation)” value with G protein alpha-subunits is on record as “clearly increased compared to Gβ3”. Also, the “activation of PLCβ3” value in assay [5] was “can activate”. In addition, the “G protein activation” value with G protein alpha subunits is “more potent than Gβ3”.

B3: Gβ3s-2: new splice variant of the Gβ3 subunit of human G protein, deletion of 43 amino acids, SEQ ID NO:4 (protein, listed as Homo sapiens)
chain: MGEMEQLRQEAEQLKKQIADARKACADVTLAELVSGLEVVGRVQMRTRRTLRGHLAKIYAMHWATDSKLLVSASQDGKLIVWDSYTTNKVHAIPLRSSWVMTCAYAPSGNFVACGGLDNMCSIYNLKSREGNVKVSRELSAHTGYLSCCRFLDDNNIVTSSGDTTCALWDIETGQQKTVFVGHTGDCMSLAVSPDFNLFISGACDASAKLWDVREGTCRQTFTGQESDINAICFFSLSGRLLFAGYDDFNCNVWDSMKSERVGILSGHDNRVSCLGVTADGMAVATGSWDSFLKIWN
On to B3, for which the “activation of PLCβ3” value in assay [5] is reported as “can activate”. Besides, the “G protein activation” value with G protein alpha subunits is recorded as “strongest potentiation”.
